The source of these data is patent publication US20140213513A1 (Sanofi, priority 2012, published 2014).

The structures appear in SMILES notation. *1 amine or outer side, *2 acyl side, *3 side chain or, on linkers, in order; H or OH if unused. Where a SMILES comes first, the peptide text is derived from it. Side-chain parts run from the residue outwards. [ ]: non-standard residue; d: D form. The star is where a group is joined. γGlu = O=C(O)[C@H](CCC(=O)[*:2])N[*:1]; Palmitoyl = CCCCCCCCCCCCCCCC(=O)*; Aib = CC(C)(N)C(=O)O

Broadly, the EC50 is the concentration giving half of the maximal effect. Read a high EC50 as weaker potency.

What all share (type): cell-based
What all share (settings): Table 7; cAMP formation

In assay [1] the target is T1, human GLP-1 receptor (hGLP-1 R) (Homo sapiens, UniProt P43220).
T1 construct: expressed in transfected cells
T1 sequence (P43220 24-463): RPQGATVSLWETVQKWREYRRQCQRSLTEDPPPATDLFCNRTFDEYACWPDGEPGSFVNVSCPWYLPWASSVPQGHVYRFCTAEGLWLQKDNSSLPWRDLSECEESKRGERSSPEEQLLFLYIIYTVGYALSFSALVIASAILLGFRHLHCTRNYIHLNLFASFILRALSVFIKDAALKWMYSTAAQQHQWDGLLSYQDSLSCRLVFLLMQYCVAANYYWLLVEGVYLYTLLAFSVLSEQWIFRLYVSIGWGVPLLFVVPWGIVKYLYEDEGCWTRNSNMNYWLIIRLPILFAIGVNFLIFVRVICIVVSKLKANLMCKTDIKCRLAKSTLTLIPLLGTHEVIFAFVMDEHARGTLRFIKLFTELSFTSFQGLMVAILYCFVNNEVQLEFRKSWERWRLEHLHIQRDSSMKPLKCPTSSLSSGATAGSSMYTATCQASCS
Put plainly: cAMP response of HEK-293 cells stably expressing human GLP-1 receptor (HTRF). In outline: (§1)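 Intracellular cAMP is quantified by HTRF following a 30-minute room-temperature incubation of cell suspensions (400000 cells/ml) with test compound in HBSS, 20 mM HEPES, 0.1% BSA and 2 mM IBMX.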
Background: Time-resolved FRET reads energy transfer from a long-lived donor to a nearby acceptor.

Assay [2] deals with T2, human GIP receptor (hGIP R) (Homo sapiens, UniProt P48546).
T2 construct: expressed in transfected cells
T2 sequence (P48546 22-466): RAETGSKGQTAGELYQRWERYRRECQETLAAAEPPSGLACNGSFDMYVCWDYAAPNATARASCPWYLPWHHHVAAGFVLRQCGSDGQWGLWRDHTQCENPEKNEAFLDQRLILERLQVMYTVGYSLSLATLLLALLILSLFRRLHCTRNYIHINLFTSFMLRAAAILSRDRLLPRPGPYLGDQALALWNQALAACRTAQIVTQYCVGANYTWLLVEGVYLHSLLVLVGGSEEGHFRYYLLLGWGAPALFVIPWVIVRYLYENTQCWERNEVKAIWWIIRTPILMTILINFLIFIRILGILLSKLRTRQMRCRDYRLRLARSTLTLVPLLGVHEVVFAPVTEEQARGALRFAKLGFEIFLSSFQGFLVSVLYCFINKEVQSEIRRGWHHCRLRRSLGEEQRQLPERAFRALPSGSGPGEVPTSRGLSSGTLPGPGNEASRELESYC
Put plainly: cAMP response of HEK-293 cells stably expressing human GIP receptor (HTRF). In outline:
as §1

Assay [3] concerns the target T3, human glucagon receptor (hGLUC R) (Homo sapiens, UniProt P47871).
T3 construct: expressed in transfected cells
Put plainly: cAMP response of HEK-293 cells stably expressing human glucagon receptor (HTRF). A digest of the protocol: as §1

T3 sequence (P47871 26-477): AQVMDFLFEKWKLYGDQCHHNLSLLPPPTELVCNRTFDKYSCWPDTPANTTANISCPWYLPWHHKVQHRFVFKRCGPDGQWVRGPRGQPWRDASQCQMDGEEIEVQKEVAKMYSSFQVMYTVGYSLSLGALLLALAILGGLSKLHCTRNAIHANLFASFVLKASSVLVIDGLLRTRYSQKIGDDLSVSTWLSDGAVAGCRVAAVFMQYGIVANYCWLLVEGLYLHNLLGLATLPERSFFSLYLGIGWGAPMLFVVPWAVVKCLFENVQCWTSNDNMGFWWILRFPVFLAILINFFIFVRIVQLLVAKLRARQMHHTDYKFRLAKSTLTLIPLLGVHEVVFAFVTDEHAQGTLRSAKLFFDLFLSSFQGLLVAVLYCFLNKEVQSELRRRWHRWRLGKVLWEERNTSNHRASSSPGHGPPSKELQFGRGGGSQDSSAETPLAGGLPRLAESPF

Take `CCCCCCCCCCCCCCCC(=O)NCCCC[C@H](NC(=O)[C@H](CCC(N)=O)NC(=O)[C@@H](NC(=O)[C@H](CO)NC(=O)[C@H](CC(C)C)NC(=O)[C@H](CC(=O)O)NC(=O)[C@H](CO)NC(=O)[C@@H](NC(=O)[C@H](Cc1ccccc1)NC(=O)[C@@H](NC(=O)CNC(=O)[C@H](CCC(N)=O)NC(=O)C(C)(C)NC(=O)[C@@H](N)Cc1ccc(O)cc1)[C@@H](C)O)[C@@H](C)O)[C@@H](C)CC)C(=O)N[C@@H](CCC(=O)O)C(=O)N[C@@H](CCC(N)=O)C(=O)N[C@@H](CCCNC(=N)N)C(=O)N[C@@H](C)C(=O)N[C@@H](C)C(=O)NC(C)(C)C(=O)N[C@@H](CCC(=O)O)C(=O)N[C@@H](Cc1ccccc1)C(=O)N[C@H](C(=O)N[C@@H](CCC(=O)O)C(=O)N[C@@H](Cc1c[nH]c2ccccc12)C(=O)N[C@@H](CC(C)C)C(=O)N[C@@H](CCCCN)C(=O)N[C@@H](CC(N)=O)C(=O)N[C@H](C(=O)NCC(=O)N1CCC[C@H]1C(=O)N[C@@H](CO)C(=O)N[C@@H](CO)C(=O)NCC(=O)N[C@@H](C)C(=O)N1CCC[C@H]1C(=O)N1CCC[C@H]1C(=O)N1CCC[C@H]1C(=O)N[C@@H](CO)C(N)=O)[C@@H](C)O)[C@@H](C)CC` [SEQ ID NO: 21, Y-Aib-Q-G-T-F-T-S-D-L-S-I-Q-K(x53)-E-Q-R-A-A-Aib-E-F-I-E-W-L-K-N-T-G-P-S-S-G-A-P-P-P-S-NH2] (H-Y[Aib]QGTFTSDLSIQK(Palmitoyl)EQRAA[Aib]EFIEWLKNTGPSSGAPPPS-NH2): the EC50 was found to be 0.037 nM in assay [1], 0.189 nM in assay [2] and 0.674 nM in assay [3].
As for `CCCCCCCCCCCCCCCC(=O)N[C@@H](CCC(=O)NCCCC[C@H](NC(=O)[C@H](CCC(N)=O)NC(=O)[C@@H](NC(=O)[C@H](CO)NC(=O)[C@H](CC(C)C)NC(=O)[C@H](CC(=O)O)NC(=O)[C@H](CO)NC(=O)[C@@H](NC(=O)[C@H](Cc1ccccc1)NC(=O)[C@@H](NC(=O)CNC(=O)[C@H](CCC(N)=O)NC(=O)C(C)(C)NC(=O)[C@@H](N)Cc1ccc(O)cc1)[C@@H](C)O)[C@@H](C)O)[C@@H](C)CC)C(=O)N[C@@H](CCC(=O)O)C(=O)N[C@@H](CCCCN)C(=O)N[C@@H](CCCNC(=N)N)C(=O)N[C@@H](C)C(=O)NC(C)(C)C(=O)NC(C)(C)C(=O)N[C@@H](CCC(=O)O)C(=O)N[C@@H](Cc1ccccc1)C(=O)N[C@H](C(=O)N[C@@H](CCC(=O)O)C(=O)N[C@@H](Cc1c[nH]c2ccccc12)C(=O)N[C@@H](CC(C)C)C(=O)N[C@@H](CCCCN)C(=O)N[C@@H](CC(N)=O)C(=O)N[C@H](C(=O)NCC(=O)N1CCC[C@H]1C(=O)N[C@@H](CO)C(=O)N[C@@H](CO)C(=O)NCC(=O)N[C@@H](C)C(=O)N1CCC[C@H]1C(=O)N1CCC[C@H]1C(=O)N1CCC[C@H]1C(=O)N[C@@H](CO)C(N)=O)[C@@H](C)O)[C@@H](C)CC)C(=O)O` [SEQ ID NO: 22, Y-Aib-Q-G-T-F-T-S-D-L-S-I-Q-K(yE-x53)-E-K-R-A-Aib-Aib-E-F-I-E-W-L-K-N-T-G-P-S-S-G-A-P-P-P-S-NH2] (H-Y[Aib]QGTFTSDLSIQK([γGlu-Palmitoyl])EKRA[Aib][Aib]EFIEWLKNTGPSSGAPPPS-NH2), the EC50 in assay [1] stood at 0.0085 nM; in assay [2], 0.102 nM; in assay [3], 2.21 nM.
Regarding `CCCCCCCCCCCCCCCC(=O)N[C@@H](CCC(=O)NCCCC[C@H](NC(=O)[C@H](CCC(N)=O)NC(=O)[C@@H](NC(=O)[C@H](CO)NC(=O)[C@H](CC(C)C)NC(=O)[C@H](CC(=O)O)NC(=O)[C@H](CO)NC(=O)[C@@H](NC(=O)[C@H](Cc1ccccc1)NC(=O)[C@@H](NC(=O)CNC(=O)[C@H](CCC(N)=O)NC(=O)C(C)(C)NC(=O)[C@@H](N)Cc1ccc(O)cc1)[C@@H](C)O)[C@@H](C)O)[C@@H](C)CC)C(=O)N[C@@H](CCC(=O)O)C(=O)N[C@@H](CCCCN)C(=O)N[C@@H](CCCNC(=N)N)C(=O)N[C@@H](C)C(=O)N[C@@H](C)C(=O)NC(C)(C)C(=O)N[C@@H](Cc1ccc(O)cc1)C(=O)N[C@@H](Cc1ccccc1)C(=O)N[C@H](C(=O)N[C@@H](CCC(=O)O)C(=O)N[C@@H](Cc1c[nH]c2ccccc12)C(=O)N[C@@H](CC(C)C)C(=O)N[C@@H](CCCCN)C(=O)N[C@@H](CC(N)=O)C(=O)N[C@H](C(=O)NCC(=O)N1CCC[C@H]1C(=O)N[C@@H](CO)C(=O)N[C@@H](CO)C(=O)NCC(=O)N[C@@H](C)C(=O)N1CCC[C@H]1C(=O)N1CCC[C@H]1C(=O)N1CCC[C@H]1C(=O)N[C@@H](CO)C(N)=O)[C@@H](C)O)[C@@H](C)CC)C(=O)O` [SEQ ID NO: 23, Y-Aib-Q-G-T-F-T-S-D-L-S-I-Q-K(yE-x53)-E-K-R-A-A-Aib-Y-F-I-E-W-L-K-N-T-G-P-S-S-G-A-P-P-P-S-NH2] (H-Y[Aib]QGTFTSDLSIQK([γGlu-Palmitoyl])EKRAA[Aib]YFIEWLKNTGPSSGAPPPS-NH2), the half-maximal effective concentration (EC50) was determined as 0.0092 nM in assay [1], 0.135 nM in assay [2] and 0.312 nM in assay [3].
For `CCCCCCCCCCCCCCCC(=O)NCCCC[C@H](NC(=O)[C@H](CCC(N)=O)NC(=O)[C@@H](NC(=O)[C@H](CO)NC(=O)[C@H](CC(C)C)NC(=O)[C@H](CC(=O)O)NC(=O)[C@H](CO)NC(=O)[C@@H](NC(=O)[C@H](Cc1ccccc1)NC(=O)[C@@H](NC(=O)CNC(=O)[C@H](CCC(N)=O)NC(=O)C(C)(C)NC(=O)[C@@H](N)Cc1ccc(O)cc1)[C@@H](C)O)[C@@H](C)O)[C@@H](C)CC)C(=O)N[C@@H](CCC(=O)O)C(=O)N[C@@H](CCCCN)C(=O)N[C@@H](CCCNC(=N)N)C(=O)N[C@@H](C)C(=O)N[C@H](C(=O)NC(C)(C)C(=O)N[C@@H](CC(C)C)C(=O)N[C@@H](Cc1ccccc1)C(=O)N[C@H](C(=O)N[C@@H](CCC(=O)O)C(=O)N[C@@H](Cc1c[nH]c2ccccc12)C(=O)N[C@@H](CC(C)C)C(=O)N[C@@H](CCCCN)C(=O)N[C@@H](C)C(=O)NCC(=O)NCC(=O)N1CCC[C@H]1C(=O)N[C@@H](CO)C(=O)N[C@@H](CO)C(=O)NCC(=O)N[C@@H](C)C(=O)N1CCC[C@H]1C(=O)N1CCC[C@H]1C(=O)N1CCC[C@H]1C(=O)N[C@@H](CO)C(N)=O)[C@@H](C)CC)C(C)C` [SEQ ID NO: 25, Y-Aib-Q-G-T-F-T-S-D-L-S-I-Q-K(x53)-E-K-R-A-V-Aib-L-F-I-E-W-L-K-A-G-G-P-S-S-G-A-P-P-P-S-NH2] (H-Y[Aib]QGTFTSDLSIQK(Palmitoyl)EKRAV[Aib]LFIEWLKAGGPSSGAPPPS-NH2) the same measures were 0.037 nM, 0.176 nM and 2.03 nM.
The like results for `CCCCCCCCCCCCCCCC(=O)N[C@@H](CCC(=O)NCCCC[C@H](NC(=O)[C@H](CCC(N)=O)NC(=O)[C@@H](NC(=O)[C@H](CO)NC(=O)[C@H](CC(C)C)NC(=O)[C@H](CC(=O)O)NC(=O)[C@H](CO)NC(=O)[C@@H](NC(=O)[C@H](Cc1ccccc1)NC(=O)[C@@H](NC(=O)CNC(=O)[C@H](CCC(N)=O)NC(=O)C(C)(C)NC(=O)[C@@H](N)Cc1ccc(O)cc1)[C@@H](C)O)[C@@H](C)O)[C@@H](C)CC)C(=O)N[C@@H](CCC(=O)O)C(=O)N[C@@H](CCCCN)C(=O)N[C@@H](CCCNC(=N)N)C(=O)N[C@@H](C)C(=O)N[C@H](C(=O)NC(C)(C)C(=O)N[C@@H](CCC(=O)O)C(=O)N[C@@H](Cc1ccccc1)C(=O)N[C@H](C(=O)N[C@@H](CCC(=O)O)C(=O)N[C@@H](Cc1c[nH]c2ccccc12)C(=O)N[C@@H](CC(C)C)C(=O)N[C@@H](CCCCN)C(=O)N[C@@H](C)C(=O)NCC(=O)NCC(=O)N1CCC[C@H]1C(=O)N[C@@H](CO)C(=O)N[C@@H](CO)C(=O)NCC(=O)N[C@@H](C)C(=O)N1CCC[C@H]1C(=O)N1CCC[C@H]1C(=O)N1CCC[C@H]1C(=O)N[C@@H](CO)C(N)=O)[C@@H](C)CC)C(C)C)C(=O)O` [SEQ ID NO: 26, Y-Aib-Q-G-T-F-T-S-D-L-S-I-Q-K(yE-x53)-E-K-R-A-V-Aib-E-F-I-E-W-L-K-A-G-G-P-S-S-G-A-P-P-P-S-NH2] (H-Y[Aib]QGTFTSDLSIQK([γGlu-Palmitoyl])EKRAV[Aib]EFIEWLKAGGPSSGAPPPS-NH2) were, in that order, 0.0176 nM, 0.0053 nM and 0.3 nM.
On to `CCCCCCCCCCCCCCCC(=O)N[C@@H](CCC(=O)NCCCC[C@H](NC(=O)[C@H](CCC(N)=O)NC(=O)[C@@H](NC(=O)[C@H](CO)NC(=O)[C@H](CC(C)C)NC(=O)[C@H](CC(=O)O)NC(=O)[C@H](CO)NC(=O)[C@@H](NC(=O)[C@H](Cc1ccccc1)NC(=O)[C@@H](NC(=O)CNC(=O)[C@H](CCC(N)=O)NC(=O)C(C)(C)NC(=O)[C@@H](N)Cc1ccc(O)cc1)[C@@H](C)O)[C@@H](C)O)[C@@H](C)CC)C(=O)N[C@@H](CC(=O)O)C(=O)N[C@@H](CCCCN)C(=O)N[C@@H](CCCNC(=N)N)C(=O)N[C@@H](C)C(=O)N[C@@H](C)C(=O)NC(C)(C)C(=O)N[C@@H](CC(C)C)C(=O)N[C@@H](Cc1ccccc1)C(=O)N[C@H](C(=O)N[C@@H](CCC(=O)O)C(=O)N[C@@H](Cc1c[nH]c2ccccc12)C(=O)N[C@@H](CC(C)C)C(=O)N[C@@H](CCCCN)C(=O)N[C@@H](C)C(=O)NCC(=O)NCC(=O)N1CCC[C@H]1C(=O)N[C@@H](CO)C(=O)N[C@@H](CO)C(=O)NCC(=O)N[C@@H](C)C(=O)N1CCC[C@H]1C(=O)N1CCC[C@H]1C(=O)N1CCC[C@H]1C(=O)N[C@@H](CO)C(N)=O)[C@@H](C)CC)C(=O)O` [SEQ ID NO: 27, Y-Aib-Q-G-T-F-T-S-D-L-S-I-Q-K(yE-x53)-D-K-R-A-A-Aib-L-F-I-E-W-L-K-A-G-G-P-S-S-G-A-P-P-P-S-NH2] (H-Y[Aib]QGTFTSDLSIQK([γGlu-Palmitoyl])DKRAA[Aib]LFIEWLKAGGPSSGAPPPS-NH2), for which the results for the EC50 in assay [1], in assay [2] and in assay [3] were 0.0147 nM, 0.0826 nM and 0.0389 nM, respectively.
